# Reference: US6759403B2, “Metalloporphyrins and their uses as radiosensitizers for radiation therapy” (Brookhaven Science Associates, LLC, priority 2001, dated 2004)
# Assays:
# EMT-6 mammary carcinomas = assay: Biodistribution study of CuTCPBr in mice with EMT-6 mammary carcinomas on the back (Example 5); format: in vivo, BALB/c mice; conditions: for Boron Concentration, Tumor / Boron Concentration, Blood / Boron Concentration, Brain / Boron Concentration, Ears (skin) / Boron Concentration, Liver / Boron Concentration, Spleen / Boron Concentration, Tongue: 6 ip injections over 2 days
# Protocol: Two groups of seven (7) BALB/c mice bearing EMT-6 mammary carcinomas on the back were given CuTCPBr at a dose of 432 μg/g body weight (94 μg B/gbw) in six intraperitoneal injections over two days. Two days after the last injection, the mice in one group were euthanized and the boron concentrations in various tissues were measured. Four days after the last injection, the same procedure was carried out on the second group of mice. The average boron concentrations (mean with standard deviation in parentheses) for the two groups of mice injected with CuTCPBr are listed in the second and third columns of Table 4.
# The tumor to blood boron concentration ratio after two days was approximately 8:1 and after four days it increased to 232:1. The tumor to brain boron concentration ratio after two days was approximately 197:1 and after four days it increased to 225:1.
# EMT-6 leg tumors = assay: Boron biodistribution in mice with subcutaneous EMT-6 leg tumors (Example 3); format: in vivo, BALB/c mice; conditions: for Boron Concentration, Blood / Boron Concentration, Liver / Boron concentration, Cerebrum / Boron concentration, Ears / Boron Concentration, Tumor: 156 μg CuTCPBr/gbw over 2 days; for Boron Concentration, Tumor / Tumor boron concentration normalized to the dose of the first study: leg tumor; for Tumor boron concentration normalized to the dose of the first study: normalized from 156 to 186 μg/g dose
# Protocol: In this example, BALB/c mice bearing subcutaneous EMT-6 leg tumors were given 156 μg CuTCPBr/gbw in a volume of 0.01 mL/gbw/injection over a period of 2 days.
# There is a larger vascular system surrounding the dorsal thorax compared with the leg, which may be a factor. However, in the case of CuTCPH, the boron concentration was 30% higher in leg tumors compared to back tumors. Normalizing to the slightly higher dose of the first study, the tumor boron concentration should be about 29 and 15 μg/g at 2d and 5d, respectively, which are still low. Studies are underway to repeat these experiments.
# [1] = Toxicity observation during and after porphyrin administration and at necropsy (Examples 2 and 3); format: in vivo; conditions: Examples 2 and 3 (186 or 156 μg CuTCPBr/g)
# Description: Toxicity is the critical factor, and since no toxicity was observed, the dose can be increased to achieve tumor boron concentrations higher than those in Examples 2 and 3.
# EMT-6 mammary tumors = assay: Boron concentrations in tissues at the time of irradiation (Example 8); format: in vivo, BALB/c mice; conditions: ≈400 μg/g body weight CuTCPBr, euthanized the day of irradiation
# Description: In this example, female BALB/c mice (Taconic Farms, Germantown, N.Y.) (20-25 g) were used in radiotherapy studies to compare tumor control effects in mice bearing EMT-6 mammary tumors. The EMT-6 leg tumors were formed by mincing freshly removed tumor tissue from mice into fragments no larger than 0.5 mm. The fragments were mixed in a saline solution and implanted subcutaneously (sc) in the legs of mice using an 18-gauge trocar. Tumor fragments were used because in this particular location tumors initiated by cell suspensions tend to spread in a thin subcutaneous layer and invade the subjacent muscle. Using tumor fragments, the tumors are palpable, but thinner on the leg than on the dorsal thorax. In late stage, fragment-initiated tumors can invade muscle tissue but not as frequently as do suspension-initiated tumors.
# At approximately seven days after tumor implantation, the mice were stratified by tumor volume into six (6) matched experimental groups, which included five groups of twelve (12) mice each and a control group of thirty-three (33). Two groups were treated with ≈400 μg/g body weight CuTCPBr and given two doses of 100 kVp x-irradiation x-rays, two groups were treated with only two doses of 100 kVp x-irradiation, one group received CuTCPBr and were euthanized the day of irradiation. The function of the group which was immediately euthanized was to determine the boron concentration in tissues at the time of irradiation. It was not a control group upon which the effectiveness of treatment was compared. The control group of thirty-three mice was not treated at all.
# Tumor to blood boron concentration ratios were about 4:1, which is low due to the high blood values. Such a trend was also observed with CuTCPH at high doses of 400 mg/kg.
# [2] = CuTCPBr 432 μg/g body weight, after 2 days
# [3] = CuTCPBr 432 μg/g body weight, after 4 days
substance,measurement,setting,value
copper octabromotetracarboranylphenylporphyrin [CuTCPBr],"Boron Concentration, Tumor","EMT-6 mammary carcinomas; CuTCPBr 432 μg/g body weight (94 μg B/gbw), after 2 days",256 (51) μg/g
same,"Boron Concentration, Blood",EMT-6 mammary carcinomas; [2],30 (12) μg/g
same,"Boron Concentration, Brain",EMT-6 mammary carcinomas; [2],1.3 (0.4) μg/g
same,"Boron Concentration, Ears (skin)",EMT-6 mammary carcinomas; [2],16 (4.3) μg/g
same,"Boron Concentration, Liver",EMT-6 mammary carcinomas; [2],831 (102) μg/g
same,"Boron Concentration, Spleen",EMT-6 mammary carcinomas; [2],507 (60) μg/g
same,"Boron Concentration, Tongue",EMT-6 mammary carcinomas; [2],43 (4.1) μg/g
same,"Boron Concentration, Blood",EMT-6 mammary carcinomas; [3],0.8 (0.2) μg/g
same,"Boron Concentration, Brain",EMT-6 mammary carcinomas; [3],0.7 (0.1) μg/g
same,"Boron Concentration, Ears (skin)",EMT-6 mammary carcinomas; [3],12 (1.6) μg/g
same,"Boron Concentration, Liver",EMT-6 mammary carcinomas; [3],592 (24) μg/g
same,"Boron Concentration, Spleen",EMT-6 mammary carcinomas; [3],336 (40) μg/g
same,"Boron Concentration, Tongue",EMT-6 mammary carcinomas; [3],37 (4.0) μg/g
same,"Boron Concentration, Tumor",EMT-6 mammary carcinomas; [3],180 (27) μg/g
same,decrease of liver boron from two to four days,"EMT-6 mammary carcinomas; CuTCPBr 432 μg/g body weight, indicates faster clearance time",29%
same,"Boron Concentration, Blood",EMT-6 leg tumors; 2 days after last injection,0.2 ± 0.1 µg/g
same,"Boron Concentration, Liver",EMT-6 leg tumors; 2 days after last injection,271 ± 40 µg/g
same,"Boron concentration, Cerebrum",EMT-6 leg tumors; 2 days after last injection,0 ± 0.1 µg/g
same,"Boron concentration, Ears",EMT-6 leg tumors; 2 days after last injection,1 ± 1 µg/g
same,"Boron Concentration, Tumor",EMT-6 leg tumors; 2 days after last injection,24 ± 11 µg/g
same,"Boron Concentration, Blood",EMT-6 leg tumors; 5 days after last injection,0.1 ± 0.1 µg/g
same,"Boron Concentration, Liver",EMT-6 leg tumors; 5 days after last injection,308 ± 40 µg/g
same,"Boron concentration, Cerebrum",EMT-6 leg tumors; 5 days after last injection,0.6 ± 1 µg/g
same,"Boron concentration, Ears",EMT-6 leg tumors; 5 days after last injection,0.6 ± 0.7 µg/g
same,"Boron Concentration, Tumor",EMT-6 leg tumors; 5 days after last injection,13 ± 6 µg/g
same,Tumor boron concentration normalized to the dose of the first study,EMT-6 leg tumors; 2d,about 29 μg/g
same,Tumor boron concentration normalized to the dose of the first study,EMT-6 leg tumors; 5d,~15 µg/g
same,tissues at necropsy,[1],all tissues appeared normal
same,"toxic effects, physically or behaviorally",[1]; during and after porphyrin administration,no toxic effects were noted
same,"Boron Concentration, Blood",EMT-6 mammary tumors,68 (19) μg/g
same,"Boron Concentration, Liver",EMT-6 mammary tumors,725 (72) μg/g
same,"Boron Concentration, Muscle",EMT-6 mammary tumors,12 (3) μg/g
same,"Boron Concentration, Skin",EMT-6 mammary tumors,20 (4.3) μg/g
same,"Boron Concentration, Tumor",EMT-6 mammary tumors; leg tumor,277 (45) μg/g
